Source: publication PMC4381587, “A novel PI3K inhibitor PIK-C98 displays potent preclinical activity against multiple myeloma” (Oncotarget, 2014)

Key:
mTOR = tested on: T1, mTOR; test: Kinase activity in cell-free assay, mTOR; type: biochemical; details: enzymatic system, even at a concentration of 300 μM
T1 construct: purchased Reaction Biology Corp., Malvern, PA, USA
Method: To confirm this hypothesis, the inhibitory potency of C98 on PI3K enzymes was measured in a cell-free system with individual recombinant human PI3K isoforms. […] To further evaluate its specificity on PI3K, the effects of C98 on other associated kinases AKT, PDK1, and mTOR were also measured in the enzymatic systems. […] Therefore, C98 preferred to inhibit PI3K activity.
Kinase activity in the presence of C98 was performed by using the HotSpot technology (Reaction Biology Corp., Malvern, PA, USA) as described previously.

[1] = tested on: AKT phosphorylation in LP1 and JJN3 cells; test: Immunoblotting of AKT phosphorylation in starved, IGF-1-stimulated LP1 and JJN3 cells; type: cell-based; details: 2 hr, then IGF-1 100 ng/mL 15 min
Method: (B) LP1 and JJN3 cells were starved overnight, then treated with C98 or S14161 for 2 hr, followed by IGF-1 (100 ng/mL) for 15 min. Cells were then prepared for the analysis of the expression of p-AKT, t-AKT, p-IGF-1R, and IGF-1R by immunoblotting. (C) OPM2 and JJN3 cells were treated with increasing concentrations of C98 for 24 hr before being applied to immunoblotting against p-ERK, t-ERK, p-P38, t-P38, p-Src, t-Src, p-STAT3, or t-STAT3. GAPDH and β-actin were used as loading controls.
To find out whether C98 also interfered with other signaling pathways, we first checked the receptor tyrosine kinase IGF-1R, which mediates PI3K activation in MM cells in the presence of IGF-1. Starved MM cells LP1 and JJN3 were incubated with C98 followed by IGF-1 stimulation. […] Moreover, we also measured the expression of PTEN, a negative regulator of PI3K signaling, in MM cells after C98 treatment.
The immunoblotting assays were performed as described previously. IRDye 680 goat anti-mouse and IRDye 800CW goat anti-rabbit antibodies were from Odyssey (San Ramon, CA, USA).

OPM2 xenograft = test: OPM2 myeloma xenograft in nude mice; type: in vivo; details: 80 mg/kg oral daily
[2] = Pharmacokinetic study in nude mice, oral; type: in vivo; details: mouse, one oral bolus 40 mg/kg, plasma
Method: To further characterize C98 in the treatment of MM, we determined its pharmacokinetic parameters. One bolus of 40 mg/kg of C98 was orally administrated, blood samples were then collected at the time points of 0.167, 0.5, 1, 2, 4, 6, 8, and 24 hr.
Prior to dose administration, nude mice (Shanghai Slac Laboratory Animal Co. Ltd., Shanghai, China) were fasted overnight with free access to water in the regular light-dark cycle. A group of 9 mice received an oral dose of C98 at 40 mg/kg. Blood samples were collected from three mice (n = 3) at each time points as follows: 0.167, 0.5, 1, 2, 4, 6, 8, and 24 hr. Blood samples (100 μL) were immediately mixed with 10 μL of EDTA and plasma was obtained by centrifugation at 1.3 × 10^4 rpm for 10 min. Samples were stored at –80°C for LC-MS/MS analysis. Plasma concentration versus time was analyzed using WinNolin software (version 6.2.1, Pharsight, USA) and the pharmacokinetic parameters maximum drug concentration (Cmax), time to reach maximum drug concentration (Tmax), half life (t1/2), area under the plasma level-time curve (AUC) were calculated.
Concentrations of C98 in plasma and in tumor tissues were analyzed by a LC-MS/MS method as described previously. Chromatographic separation was achieved using an Agela Venusil XBP C18 column (50 × 2.1 mm; […] particle size, Bonna-Agela Technologies, Tianjin, China). The column temperature was maintained at 40°C. Gradient elution at a flow rate of 0.3 mL/min was performed using the mobile phases: A, acetonitrile: water: formic acid (5: 95: 0.1, v: v: v) and B, acetonitrile: water: formic acid (95: 5: 0.1, v: v: v).
The mass spectrometer was operated in the negative ionization mode. The ion transitions for the multiple reaction monitored were: C98, 346.6 (M-H)→312.7; betamethasone (internal standard, IS), 391.1 (M-H)→ 361.4, with a dwell time of 100 ms per transition. After setting the collision energy and mass transition for C98 and the Internal standard, all other parameters were optimized for the best sensitivity. Data was processed by the Analyst 1.5.2 data collection and integration software (AB Sciex, Framingham, MA).
Supplementary Figure S5: The time-concentration profiles of C98 in plasma after oral administration. Nude mice were orally administrated C98 at a dose of 40 mg/kg. Blood species were then collected at a serial of time points (0, 0.167, 0.5, 1, 1.5, 2, 4, 6, 8, 24 hr) and subject to LC-MS/MS analysis after treatment as described in the Methods section. Resultant plasma concentration versus time data was analyzed using WinNolin software.
(also on this page, place not known: www.impactjournals.com/oncotarget/ Oncotarget, Materials 2014 Supplementary) […]

MRT ([2]; read-out: mean residence time (MRT)): 4.48 h
Cmax ([2]; read-out: median peak concentration (Cmax)): 367 ng/mL
Tmax ([2]; read-out: time to maximal concentration (Tmax)): 0.5 h
half-life ([2]; nude, po, 40 mg/kg, read-out: half-life (t1/2) (converted)): 2.03 h
SMILES: N#C/C(=C\C=C\c1ccc(-c2cc(Cl)ccc2Cl)o1)C(N)=S [C98]
suppression of mTOR activity (mTOR): failed to suppress
AKT phosphorylation [1]: suppressed AKT phosphorylation
tumors decreased to % of the vehicle control (OPM2 xenograft; 16-day treatment): 45%
tumor volume at the end of the experiment (OPM2 xenograft; 16 days): 605.8 ± 115.7 mm^3
